The values that follow come from US12642786B2, “Methods, compositions and kits for treating multiple sclerosis and other disorders” (The Johns Hopkins University, priority 2018, dated 2026).

“Also recorded” adds a separate entry of the source.

For data set [1] the following is noted: phase 2 clinical trials in humans; cited from earlier work.
Data set [2] concerns murine peritoneal macrophages (mPMs). As to the kind of experiment: mPM arginase-1 expression by Western blot. The class given is cell-based. To be noted: IL-4 20 ng/mL. How it is done: Cells were lysed by sonication in RIPA buffer supplemented with protease inhibitors, and protein concentration was measured by Bradford assay. Lysates were mixed with SDS sample buffer, boiled, and resolved by SDS/PAGE. Bands were transferred to PVDF Immobilon P membranes (Millipore) using a wet transfer, blocked in TBS-T containing 5% milk, and probed overnight at 4° C. with mouse monoclonal antibody against arginase-1 (Santa Cruz Biotechnology, catalog #sc-271430, 1:500). HRP-conjugated anti-mouse secondary antibody was from Jackson ImmunoResearch. Western blots were visualized using the SuperSignal West ECL system (Thermo Scientific), followed by film exposure. Blots were then stripped using Restore Western blot stripping buffer (Thermo Scientific, catalog #21059), blocked again as earlier, and probed overnight at 4° C. with HRP-conjugated anti-actin antibody before visualization as earlier. Quantitation was performed using ImageJ software.
Mice aged 8-12 wk were injected intraperitoneally with 2 mL each of 3% sterile thioglycolate (BD Biosciences, catalog #211716) medium. […] Cells were then counted, equal numbers were plated into each well of appropriate cell culture dishes, and the cells were then incubated at 37° C. for 2-4 h to allow macrophage adhesion. […]
(A western blot detects proteins with antibodies after separation by electrophoresis.)

Data set [3] relates to neurospheres. As to the kind of experiment: Neurospheres, staining for oligodendrocyte marker. The following applies: 20 nM every other day for 1 week. It counts as cell-based. The source says:
We examined the effect of bryo-1 on neurospheres, which are neural stem cell-like cells.

In data set [4] the test system is corpus callosum remyelination. The data set can be described thus: Cuprizone-induced demyelination, Black-Gold II myelin staining. To be noted: 30 μg/kg IP every other day from re-feeding, day 8 after re-feeding. The class given is in vivo, C57BL/6J mice. How it is done:
Cuprizone-induced demyelination was elicited as described by Baxi et al., Glia (2017) 65:2087-098, with minor modification. Female C57BL/6J mice (8 weeks old) were fed 0.2% cuprizone for 5 weeks to induce demyelination of the corpus callosum and then returned to normal feed. The mice (n=2 per group) were then treated with either bryo-1 (30 μg/kg) or vehicle by IP injection every other day beginning on the first day of re-feeding with normal feed, and the extent of corpus callosum remyelination was assessed by Black-Gold II myelin staining on day 8 after re-feeding.

The test system of data set [5] is CD4+, Th1 and Th17 lymphocytes in EAE mice. The data set can be described thus: Flow cytometry of lymph node, spleen, brain and spinal cord in EAE mice, prevention paradigm. It counts as in vivo, C57BL/6J mice. How it is done:
Mice were killed with pentobarbital and perfused via cardiac puncture with ice-cold HBSS without cations. Brain, spinal cord (collected using hydrostatic pressure), spleen, and lymph node tissue were isolated after perfusion and were mechanically dissociated by passing through 100-μm cell strainers. For CNS tissue, after dissociation, infiltrating mononuclear cells were separated from myelin debris using a 37/70% percoll gradient. After dissociation, spleens were incubated in ACK lysis buffer to remove red blood cell contamination. Cells were counted using a MACSQuant flow cytometer (Miltenyi Biotec).
For surface marker and intracellular cytokine staining of T cells, the cells were first restimulated with a cell stimulation mixture with protein transport inhibitors (eBioscience, catalog #00-4975-03) for 4 h in cRPMI at 37° C. They then underwent live/dead and surface marker staining as earlier. For intracellular cytokine staining, cells were permeabilized and fixed using either IC Fixation buffer for cytokine analysis (eBioscience, 00-8222-49) or FoxP3 fixation/permeabilization buffer for transcription factor analysis (eBioscience, 00-5521-00) after manufacturer recommended protocol and incubated with specific conjugated antibodies for the specified proteins in permeabilization buffer for 1 h.
Cells were analyzed by flow cytometry using a MACSQuant flow cytometer (Miltenyi Biotec). Flow data analysis was performed in FlowJo (FlowJo) or FlowLogic (Inivai).
EAE was elicited by immunizing 8-12-wk-old C57BL/6J mice with MOG35-55. Neurologic symptoms of EAE were most evident 10-14 d after MOG immunization, peaking at about 16 d and then plateauing with slight diminution until 21 d. Mice were treated with bryo-1 (30 μg/kg) or vehicle by i.p. injection 3 d per week.
(In general: In flow cytometry, cells or beads pass a laser one at a time.)

Setting [6] is: brain and spinal cord, peak disease (day 14).
Setting [7] is: lymph nodes, 8 d after immunization, prevention paradigm.
Where [8] appears, read: lymph nodes, day 8, prevention paradigm.
Where [9] appears, read: peak disease (day 14), prophylactic treatment.
The mark [10] stands for this setting: spleen, day 8, prevention paradigm.

With `CCC/C=C/C=C/C(=O)OC1/C(=C/C(=O)OC)CC2CC(C(C)O)OC(=O)CC(O)CC3CC(OC(C)=O)C(C)(C)C(O)(CC4C/C(=C/C(=O)OC)CC(/C=C/C(C)(C)C1(O)O2)O4)O3` (stereo not shown) [bryo-1, Bryostatin-1], the safety profile result in data set [1] was “favorable safety profile”. Further, the “IL-4-induced expression of arginase-1” value in data set [2] was “augments expression; also recorded: potentiated”. Further, the “expression of the oligodendrocyte marker 04” value in data set [3] is reported as “increased expression”. Moreover, the “rate of remyelination (extent of Black-Gold II staining)” value in data set [4] was “increased the rate of remyelination”. Besides, in data set [5] (setting [6]), the “percentage of infiltrating CD4+ lymphocytes expressing IL17” value was “unchanged” and the “proportion of infiltrating CD4+ lymphocytes producing IFNγ” value is reported as “decreased proportion”. Also, in data set [5] (setting [7]), the “numbers of Th1 (CD4+; IFNγ+) lymphocytes in lymph nodes” value was “significantly decreased numbers”, the “numbers of Th17 (CD4+; IL17+) lymphocytes in lymph nodes” value is listed as “significantly decreased numbers” and the “numbers of total CD4+ (CD3+; CD4+) lymphocytes in lymph nodes” value is given as “significantly decreased numbers”. Besides, in data set [5] (setting [8]), the “proportion of Th1 cells among CD4+ lymphocytes” value is “significantly lower proportion” and the “proportion of Th17 cells among CD4+ lymphocytes” value is given as “insignificant decrease”. Besides, in data set [5] (setting [9]), the “infiltration of CD4+ lymphocytes into the brain” value is listed as “diminished infiltration” and the “infiltration of CD4+ lymphocytes into the spinal cord” value is listed as “diminished infiltration”. In data set [5] (setting [10]), the “numbers of Th1 lymphocytes in spleen” value is “significantly decreased numbers”, the “numbers of Th17 cells in spleen” value is reported as “trend toward decreased” and the “numbers of total CD4+ lymphocytes in spleen” value is on record as “significantly decreased numbers”.
